Source: paper PMC6130628, “Some pharmacokinetic parameters of salvianolic acid A following single-dose oral administration to rats” (Pharmaceutical Biology, 2018)
Like-named read-outs stand apart in the source and are kept apart here.

Key:
[1] = cited from earlier work
[2] = design: method as in Pei et al. [2008]; conditions: oral administration at 100 mg/kg; ref Pei et al. [2008]; cited from earlier work
[3] = Excretion of Sal A from rats (feces, urine, bile; UPLC–MS/MS); format: in vivo, Sprague-Dawley rats; conditions: single oral dose 20 mg/kg
Protocol: Twelve healthy, intact Sprague-Dawley rats (male/female, 1/1, 185-215 g, Certificate No. SCXK 2006-0009) were purchased from Vital River Laboratories (Beijing, China). The rats were maintained in air-conditioned animal quarters with alternating 12 h light/dark cycles at a room temperature of 22 ± 2 °C and a relative humidity of 50 ± 10%. The rodents were given a commercial rat chow and water ad libitum. The experiment started after acclimation to the facilities for 7 days. The studies were conducted under protocols approved by the Ethics Committee of Laboratory Animals of the Affiliated Hospital of Qingdao University ([…] 2013-2-4-01). In the urine and feces excretion studies, rats were treated as follows. After acclimation to the facilities for 7 days in metabolism cages and being fasted overnight (∼12 h) with free access to water, six rats (male/female, 1/1) were given a single dose of Sal A at 20 mg/kg orally. Blank feces and urine were got prior to administration. […] These samples were immediately frozen and maintained at -80 °C until analysis. In the bile excretion study, rats were treated as follows. After acclimation to the facilities for 7 days and being fasted overnight (∼12 h) with free access to water, six rats (male/female, 1/1) received a bile duct intubation surgery. An oral dose of 20 mg/kg were given to the postoperative awake rats, and bile samples were collected prior and after the administration (from 0 to 2, 2 to 4, 4 to 6, 6 to 8, 8 to 12 and 12 to 24 h). The samples were immediately frozen and maintained at -80 °C immediately until analysis. After drying, feces were soaked in purified water containing VC 100 μg/mL (5 mL/g) overnight and treated with ultrasonic for 10 min. Homogenate was centrifuged at 13,400 rpm for 10 min. 200 μL of the supernatant was got for the UPLC-MS/MS analysis, along with 200 μL of urine and bile samples. Sample preparation was the same as sample preparation in “Pharmacokinetic study in vivo”.

[4] = Pharmacokinetic study in vivo (plasma, LC–MS, noncompartmental); conditions: both sexes, Sprague-Dawley, rat, rats; for MRT last: read-out: MRT0–t; for AUC(0-t) / Cmax: single dose
Protocol: Ninety-six healthy, intact Sprague-Dawley rats (male/female, 1/1, 185-215 g, Certificate No. SCXK 2006-0009) were purchased from Vital River Laboratories (Beijing, China). The rats were maintained in air-conditioned animal quarters with alternating 12 h light/dark cycles at a room temperature of 22 ± 2 °C and a relative humidity of 50 ± 10%. The rodents were given a commercial rat chow and water ad libitum. The experiment started after acclimation to the facilities for 7 days. All animal studies were conducted in accordance with “Principles of laboratory animal care” (NIH publication No. 85-23, revised 1985) and under protocols approved by the Ethic Committee of Laboratory Animals of the Affiliated Hospital of Qingdao University ([…] 2013-2-4-01). Rats were fasted overnight (∼12 h) and had free access to water throughout the experimental period. […] The doses applied in this study were determined according to, on the one hand, the doses applied in pharmacodynamic experiments in rats (Yang et al. [2011a]; Yang et al. [2011b]; Yu et al. [2012]; Hou et al. [2017]), and on the other hand, the results of our preliminary absorption experiments. The blood samples were taken crossly from the orbital sinus into tubes pretreated with heparin before dosing and subsequently at 0.083, 0.167, 0.25, 0.333, 0.5, 0.75, 1, 2, 4, 8, 12 and 24 h postdosing. After blood sampling, the samples were centrifuged at 4,500 rpm for 15 min at 4 °C to obtain 200 μL of plasma samples. These samples were immediately frozen and maintained at -80 °C until analysis. Plasma samples were thawed at room temperature before processing. To a 200 μL aliquot of plasma sample, 10 μL of VC (10 mg/mL) and 10 μL of the IS spiking solution (butyl paraben, 1 μg/mL) were added. Then, the mixture was acidified with 100 μL of 1 mol/L HCl and vortex-mixed with 800 μL of EtOAc for 3 min. […] EtOAc (800 μL) was added again to the lower aqueous phase and the extraction process was repeated. […] The residue was reconstituted in 100 μL of MeOH-H2O (50:50, v/v, containing VC 100 μg/mL). After centrifugation at 13,400 rpm for 5 min, 20 μL of the supernatant was injected to the LC-MS system. DAS pharmacokinetic software Data Analysis System Version 3.0 (Bontz Inc., Beijing, China) was used for pharmacokinetic analysis of Sal A concentrations. The noncompartmental model was applied for analysis of the data following intravenous and oral administration of Sal A. The peak plasma concentration (Cmax), the corresponding time (Tmax), the mean residence time (MRT) and the area under the concentration-time curve (AUC) could all be obtained. After intravenous and oral administration of Sal A to rats, plasma concentration was determined by LC-MS. The data obtained from each group was averaged. […] The oral bioavailability (F) was calculated by using AUCoral/dose divided by AUCiv/dose.

In the case of `O=C(/C=C/c1ccc(O)c(O)c1/C=C/c1ccc(O)c(O)c1)O[C@H](Cc1ccc(O)c(O)c1)C(=O)O` [Sal A, Salvianolic acid A], the “stability in intestinal alkaline environment” value ([1]; alkaline environment, ref Liu et al. [2011]) is listed as “instability”, the “stability in distilled water” value ([1]; distilled water, room temperature, ref Xu et al. [2008]) is listed as “instable” and the plasma half-life [2] is listed as 3.29 h. For the same compound, the “excretion via bile, mean % of the dose” value ([3]; bile duct intubated rats, 0–24 h) was 0.00373%, the dose excreted ([3]; both sexes, Sprague-Dawley, rat, feces, bile and urine, rats, read-out: recovery (accumulated excretion through feces, bile and urine), % of administered dose) was less than 1% and the “urinary excretion, mean % of the dose” value ([3]; rats, 0–96 h) was 0.00252%. For the same compound, the MRT last ([4]; iv, 50 ug/kg, i.v. 50 µg/kg) was 0.62 h, the Tmax ([4]; iv, 50 ug/kg, i.v. 50 µg/kg, read-out: Tmax) was 0.08 h and the half-life ([4]; iv, 50 ug/kg, i.v. 50 µg/kg, read-out: t1/2 (converted)) was 6.16 h. For the same compound, the AUC(0-t) ([4]; iv, 50 ug/kg, i.v. 50 µg/kg) was 205 ng·h/mL, the Cmax ([4]; iv, 50 ug/kg, i.v. 50 µg/kg) was 579 ng/mL and the bioavailability ([4]; po, 5 mg/kg, oral 5 mg/kg vs i.v. 50 µg/kg, AUCoral/dose divided by AUCiv/dose, read-out: F (oral bioavailability)) was 0.52%. It also gave a Tmax ([4]; po, 5 mg/kg, oral 5 mg/kg, read-out: Tmax) of 1 h, a half-life ([4]; po, 5 mg/kg, oral 5 mg/kg, read-out: t1/2 (converted)) of 1.96 h and a bioavailability ([4]; po, 10 mg/kg, oral 10 mg/kg vs i.v. 50 µg/kg, read-out: F (oral bioavailability)) of 0.41%. It also gave a Tmax ([4]; po, 10 mg/kg, oral 10 mg/kg, read-out: Tmax) of 1 h, a half-life ([4]; po, 10 mg/kg, oral 10 mg/kg, read-out: t1/2 (converted)) of 1.72 h and a bioavailability ([4]; po, 20 mg/kg, oral 20 mg/kg vs i.v. 50 µg/kg, read-out: F (oral bioavailability)) of 0.39%. The Tmax ([4]; po, 20 mg/kg, oral 20 mg/kg, read-out: Tmax) was 1 h, the half-life ([4]; po, 20 mg/kg, oral 20 mg/kg, read-out: t1/2 (converted)) was 1.79 h and the bioavailability ([4]; po, 20 mg/kg, oral in pure form, over the doses 5, 10 and 20 mg/kg, read-out: absolute (oral) bioavailability) was 0.39 to 0.52%. It also gave a half-life ([4]; po, 20 mg/kg, oral, over the doses 5, 10 and 20 mg/kg, read-out: half-life period (t1/2)) of 1.72 to 1.96 h, a Tmax ([4]; po, oral, 5–20 mg/kg, read-out: time to peak concentration in plasma (Tmax)) of no more than 1 h and an MRT last ([4]; oral 5 mg/kg) of 2.91 h. It also gave an AUC(0-t) ([4]; oral 5 mg/kg) of 106 ng·h/mL, a Cmax ([4]; oral 5 mg/kg) of 31.5 ng/mL and an MRT last ([4]; oral 10 mg/kg) of 2.33 h. It also gave an AUC(0-t) ([4]; oral 10 mg/kg) of 167 ng·h/mL, a Cmax ([4]; oral 10 mg/kg) of 57.4 ng/mL and an MRT last ([4]; oral 20 mg/kg) of 2.36 h. It also gave an AUC(0-t) ([4]; oral 20 mg/kg) of 317 ng·h/mL and a Cmax ([4]; oral 20 mg/kg) of 112 ng/mL.
